From patent US20250136568A1, “FUSED HETEROCYCLIC COMPOUNDS AS PI3KALPHA INHIBITORS” (Nanjing Zenshine Pharmaceuticals Co., Ltd., priority 2021, published 2025) come the findings set out here.

What is called IC50 is the concentration at which inhibition is half-maximal.

Experiment [1] relates to PI3Kα wide type cell line SK-BR-3. Nature of the experiment: Cell Proliferation IC50 Assay (CellTiter-Glo), SK-BR-3. As to conditions: SK-BR-3 (PI3Kα wild type), 72 hours, CellTiter-Glo, read-out: IC50 (μM) SK-BR-3. Type of experiment: cell-based. From the text:
(§1) PI3Kα H1047R mutation cell line T-47D and MDA-MB-453, E545K mutation cell line MDA-MB-361 and PI3Kα wide type cell line SK-BR-3 were purchased from Cobioer Biotech (cat. no CBP60397, CBP60386, CBP60383 and CBP60413 respectively). The CellTiter-Glo Direct Cell Proliferation Assay Kit was purchased from Prornega (cat. No. G7573)
(§2) For cell proliferation assay in each cell line: • a. Prepare complete medium (R PMI 1640, DMEM or McCoys): Add FBS and appropriate additives according to the information sheet provided by the vendor. Mix gently. • b. Prepare single cell suspension and count the cell numbers and adjust cells to appropriate density. • c. Add 80 μL of cell suspension to 96-well opaque-walled clear bottom plates according to the planned plate layout and place the plates in the CO2 incubator overnight. • d. Prepare intermediate plate: 10 μl of diluted test compounds or staurosporine solution (200×) is added to a 96 deep well plate. Then 390 μl of culture medium without FBS is added to the respective wells. • e. Transfer 20 μL of the solutions from the above intermediate plate to the wells of the plate prepared containing 80 μL of the culture medium and cells. The total dilution is 200 folds. • f. The cells were then incubated at 5% CO2, 37° C. for 72 hours. • g. Equilibrate the plate and its contents to room temperature for approximately 30 minutes. • h. Add 100 μL of CellTiter-Glo reagent to the assay plate • i. Mix contents for 10 minutes on an orbital shaker to induce cell lysis. • j. Allow the plate to incubate at room temperature for 10 minutes to stabilize luminescent signal, • k. Paste the clear bottom with white back seal and record luminescence with Varioskan LUX plate reader.
(§3) Inhibition % and IC50 value were calculated by the formula described below: […]
(In ATP-based viability assays light output follows the ATP content of the culture.)

Experiment [2] concerns PI3Kα H1047R mutation cell line T-47D. Nature of the experiment: Cell Proliferation IC50 Assay (CellTiter-Glo), T-47D. In kind it is cell-based. As to conditions: T47D (H1047R), 72 hours, CellTiter-Glo, read-out: IC50 (μM) T47D.
Text: as §1, §2, §3

Read-outs that look alike come from different tables or passages of the source. Some results are limits rather than exact numbers.

Regarding `Cc1cc([C@H](C)Nc2ccccc2C(=O)O)c2oc(-c3ccc4nn(C)cc4c3)c(C)c(=O)c2c1` (single isomer, unassigned) [Example 49B], the IC50 was more than 10 µM in experiment [1] (Homo sapiens) and 7.24 µM in experiment [2] (Homo sapiens, T47D, 72 h).
For `Cc1cc([C@H](C)Nc2ccccc2C(=O)O)c2oc(-c3ccc(-c4cnn(C)c4)cc3)cc(=O)c2c1` (single isomer, unassigned) [Example 95B], in that order: more than 10 µM and 0.99 µM.
For `COC(=O)N1CCN(c2ccc(-c3oc4c([C@@H](C)Nc5ccccc5C(=O)O)cc(C)cc4c(=O)c3C)cn2)CC1` (single isomer, unassigned) [Example 155A], in that order: more than 10 µM and 0.12 µM.
For `COC(=O)N1CCN(c2ccc(-c3oc4c([C@H](C)Nc5ccccc5C(=O)O)cc(C)cc4c(=O)c3C)cn2)CC1` (single isomer, unassigned) [Example 155B], in that order: more than 10 µM and 5.06 µM.
`Cc1cc([C@@H](C)Nc2ccccc2C(=O)O)c2oc(-c3ccc(OCC4CCCN4C)cc3)c(C)c(=O)c2c1` (single isomer, unassigned) [Example 172A]: the IC50 was more than 10 µM in experiment [1] (Homo sapiens) and 0.065 µM in experiment [2] (Homo sapiens, T47D, 72 h).
As for `Cc1cc([C@@H](C)Nc2ccccc2C(=O)O)c2oc(-c3ccc(OCC4CCCN4C)cc3)c(C)c(=O)c2c1` (single isomer, unassigned) [Example 172B], the values for the IC50 in experiment [1] and in experiment [2] were more than 10 µM and 0.063 µM, respectively.
On to `Cc1cc(C(C)Nc2ccccc2C(=O)O)c2oc(-c3ccc4c(c3)CNC4=O)cc(=O)c2c1` (stereo not shown) [Example 5, 2-((1-(6-methyl-4-oxo-2-(1-oxoisoindolin-5-yl)-4H-chromen-8-yl)ethyl)amino)benzoic acid], for which the IC50 in experiment [1] (Homo sapiens) is more than 10 µM; in experiment [2] (Homo sapiens, T47D, 72 h), 1.54 µM.
For `Cc1cc(C(C)Nc2ccccc2C(=O)O)c2oc(C3CCN(C(C)C(F)(F)F)CC3)cc(=O)c2c1` (stereo not shown) [Example 16, 2-((1-(6-methyl-4-oxo-2-(1-(1,1,1-trifluoropropan-2-yl)piperidin-4-yl)-4H-chromen-8-yl)ethyl)amino)benzoic acid], in that order: more than 10 µM and 2.56 µM.
For `Cc1cc(C(C)Nc2ccccc2C(=O)O)c2oc(C3=CCN(C(C)C(F)(F)F)CC3)cc(=O)c2c1` (stereo not shown) [Example 17, 2-((1-(6-methyl-4-oxo-2-(1-(1,1,1-trifluoropropan-2-yl)-1,2,3,6-tetrahydropyridin-4-yl)-4H-chromen-8-yl)ethyl)amino)benzoic acid], in that order: more than 10 µM and 2.07 µM.
For `Cc1cc(C(C)Nc2ccccc2C(=O)O)c2oc(-c3ccccn3)cc(=O)c2c1` (stereo not shown) [Example 31, 2-((1-(6-methyl-4-oxo-2-(pyridin-2-yl)-4H-chromen-8-yl)ethyl)amino)benzoic acid], in that order: more than 10 µM and 0.9 µM.
Consider `Cc1cc(C(C)Nc2ccccc2C(=O)O)c2oc(-c3ccc4cnccc4c3)cc(=O)c2c1` (stereo not shown) [Example 36, 2-((1-(2-(isoquinolin-6-yl)-6-methyl-4-oxo-4H-chromen-8-yl)ethyl)amino)benzoic acid], for which the half-maximal inhibitory concentration (IC50) is more than 10 µM in experiment [1] (Homo sapiens) and 0.2 µM in experiment [2] (Homo sapiens, T47D, 72 h).
The corresponding values for `Cc1cc(C(C)Nc2ccccc2C(=O)O)c2oc(-c3cnn(C4COC4)c3)cc(=O)c2c1` (stereo not shown) [Example 40, 2-((1-(6-methyl-2-(1-(oxetan-3-yl)-1H-pyrazol-4-yl)-4-oxo-4H-chromen-8-yl)ethyl)amino)benzoic acid] are more than 10 µM and 2.51 µM.
With `Cc1cc(C(C)Nc2ccccc2C(=O)O)c2oc(-c3ccc(N4CCNCC4)cc3)cc(=O)c2c1` (stereo not shown) [Example 41, 2-((1-(6-methyl-4-oxo-2-(4-(piperazin-1-yl)phenyl)-4H-chromen-8-yl)ethyl)amino)benzoic acid], the 50% inhibitory concentration (IC50) was more than 10 µM in experiment [1] (Homo sapiens) and 1.43 µM in experiment [2] (Homo sapiens, T47D, 72 h).
In the case of `Cc1cc(C(C)Nc2ccccc2C(=O)O)c2oc(-c3ccc(N4CCC(F)(F)CC4)cc3)cc(=O)c2c1` (stereo not shown) [Example 43, 2-((1-(2-(4-(4,4-difluoropiperidin-1-yl)phenyl)-6-methyl-4-oxo-4H-chromen-8-yl)ethyl)amino)benzoic acid], the IC50 in experiment [1] (Homo sapiens) was more than 10 µM; in experiment [2] (Homo sapiens, T47D, 72 h), 0.28 µM.
The corresponding values for `Cc1cc(C(C)Nc2ccccc2C(=O)O)c2oc(-c3cc4n(c3)CCN(C)C4=O)c(C)c(=O)c2c1` (stereo not shown) [Example 72, 2-((1-(3,6-dimethyl-2-(2-methyl-1-oxo-1,2,3,4-tetrahydropyrrolo[1,2-a]pyrazin-7-yl)-4-oxo-4H-chromen-8-yl)ethyl)amino)benzoic acid] are more than 10 µM and 5.08 µM.
For `Cc1cc(C(C)Nc2ccccc2C(=O)O)c2oc(-c3cc4n(n3)CCN(C)C4=O)c(C)c(=O)c2c1` (stereo not shown) [Example 73, 2-((1-(3,6-dimethyl-2-(5-methyl-4-oxo-4,5,6,7-tetrahydropyrazolo[1,5-a]pyrazin-2-yl)-4-oxo-4H-chromen-8-yl)ethyl)amino)benzoic acid], in that order: more than 10 µM and 2.01 µM.
The corresponding values for `Cc1cc(C(C)Nc2ccccc2C(=O)O)c2oc(-c3ccc(N4CCOCC4)nc3)c(C)c(=O)c2c1` (stereo not shown) [Example 81, 2-((1-(3,6-dimethyl-2-(6-morpholinopyridin-3-yl)-4-oxo-4H-chromen-8-yl)ethyl)amino)benzoic acid] are more than 10 µM and 0.15 µM.
For `Cc1cc(C(C)Nc2ccccc2C(=O)O)c2oc(-c3cnc4nn(C)cc4c3)cc(=O)c2c1` (stereo not shown) [Example 82, 2-((1-(6-methyl-2-(2-methyl-2H-pyrazolo[3,4-b]pyridin-5-yl)-4-oxo-41H-chromen-8-yl)ethyl)amino)benzoic acid], the IC50 in experiment [1] (Homo sapiens) is more than 10 µM; in experiment [2] (Homo sapiens, T47D, 72 h), more than 10 µM.
In the case of `Cc1cc(C(C)Nc2ccccc2C(=O)O)c2oc(-c3cc4cn(C)nc4cn3)cc(=O)c2c1` (stereo not shown) [Example 83, 2-((1-(6-methyl-2-(2-methyl-2H-pyrazolo[3,4-c]pyridin-5-yl)-4-oxo-41H-chromen-8-yl)ethyl)amino)benzoic acid], the concentration for half-maximal inhibition (IC50) was more than 10 µM in experiment [1] (Homo sapiens) and 0.38 µM in experiment [2] (Homo sapiens).
Turning to `Cc1cc(C(C)Nc2ccccc2C(=O)O)c2oc(-c3cc(F)c4nn(C)cc4c3)cc(=O)c2c1` (stereo not shown) [Example 85, 2-((1-(2-(7-fluoro-2-methy-2H-indazol-5-yl)-6-methyl-4-oxo-4H-chromen-8-yl)ethyl)amino)benzoic acid], the IC50 in experiment [1] (Homo sapiens) was more than 10 µM; in experiment [2] (Homo sapiens, T47D, 72 h), 0.13 µM.
In the case of `CCn1cc2cc(-c3cc(=O)c4cc(C)cc(C(C)Nc5ccccc5C(=O)O)c4o3)ccc2n1` (stereo not shown) [Example 93, 2-((1-(2-(2-ethyl-2H-indazol-5-yl)-6-methyl-4-oxo-41H-chromen-8-yl)ethyl)amino)benzoic acid], the IC50 in experiment [1] (Homo sapiens) is more than 10 µM; in experiment [2] (Homo sapiens, T47D, 72 h), 0.31 µM.
Consider `Cc1cc(C(C)Nc2ccccc2C(=O)O)c2oc(-c3ccc4c(c3)CN(C)C4)cc(=O)c2c1` (stereo not shown) [Example 94, 2-((1-(6-methyl-2-(2-methylisoindolin-5-yl)-4-oxo-4-chromen-8-yl)ethyl)amino)benzoic acid], for which the concentration for half-maximal inhibition (IC50) was more than 10 µM in experiment [1] (Homo sapiens) and 1.02 µM in experiment [2] (Homo sapiens, T47D, 72 h).
The corresponding values for `CC(Nc1ccccc1C(=O)O)c1cc(F)cc2c(=O)cc(-c3ccc4nn(C)cc4c3)oc12` (stereo not shown) [Example 101, 2-((1-(6-fluoro-2-(2-methyl-2H-indazol-5-yl)-4-oxo-4H-chromen-8-yl)ethyl)amino)benzoic acid] are more than 10 µM and 0.29 µM.
Regarding `Cc1cc(C(C)Nc2ccccc2C(=O)O)c2nc(-c3ccc4nn(C)cc4c3)cc(=O)n2c1` (stereo not shown) [Example 108, 2-((1-(7-methyl-2-(2-methyl-2H-indazol-5-yl)-4-oxo-4H-pyrido[1,2-a]pyrimidin-9-yl)ethyl)amino)benzoic acid], the IC50 in experiment [1] (Homo sapiens) was more than 10 µM; in experiment [2] (Homo sapiens, T47D, 72 h), 0.84 µM.
The corresponding values for `Cc1cc(C(C)Nc2cnccc2C(=O)O)c2oc(-c3ccc4nn(C)cc4c3)cc(=O)c2c1` (stereo not shown) [Example 112, 3-((1-(6-methyl-2-(2-methyl-2H-indazol-5-yl)-4-oxo-4H-chromen-8-yl)ethyl)amino)isonicotinic acid] are more than 10 µM and more than 10 µM.
The corresponding values for `Cc1cc(C(C)Nc2ncccc2C(=O)O)c2oc(-c3ccc4nn(C)cc4c3)cc(=O)c2c1` (stereo not shown) [Example 113, 2-((1-(6-methyl-2-(2-methyl-2H-indazol-5-yl)-4-oxo-4H-chromen-8-yl)ethyl)amino)nicotinic acid] are more than 10 µM and 0.67 µM.
